Data on 12 compounds can be found in ChEMBL document CHEMBL1150324, “Support vector machines classification of hERG liabilities based on atom types” (Bioorg Med Chem, 2008).

As a reminder, the pIC50 is −log10 of the IC50, conventionally taken in molar units. The low end stands for a large IC50, the high end for a small IC50. The IC50 is the concentration needed to halve the response being measured. A high value points to weaker potency.

Molecules are shown by their SMILES.

The target in data set [1] is Voltage-gated inwardly rectifying potassium channel KCNH2 (Homo sapiens, UniProt Q12809). Description: (§1) Inhibition of human ERG expressed in CHO cells by whole cell patch clamp technique. Particulars: for pIC50: human. For orientation: In patch-clamp work, channel activity is measured electrically.
Sequence of Voltage-gated inwardly rectifying potassium channel KCNH2 (Q12809 whole entry): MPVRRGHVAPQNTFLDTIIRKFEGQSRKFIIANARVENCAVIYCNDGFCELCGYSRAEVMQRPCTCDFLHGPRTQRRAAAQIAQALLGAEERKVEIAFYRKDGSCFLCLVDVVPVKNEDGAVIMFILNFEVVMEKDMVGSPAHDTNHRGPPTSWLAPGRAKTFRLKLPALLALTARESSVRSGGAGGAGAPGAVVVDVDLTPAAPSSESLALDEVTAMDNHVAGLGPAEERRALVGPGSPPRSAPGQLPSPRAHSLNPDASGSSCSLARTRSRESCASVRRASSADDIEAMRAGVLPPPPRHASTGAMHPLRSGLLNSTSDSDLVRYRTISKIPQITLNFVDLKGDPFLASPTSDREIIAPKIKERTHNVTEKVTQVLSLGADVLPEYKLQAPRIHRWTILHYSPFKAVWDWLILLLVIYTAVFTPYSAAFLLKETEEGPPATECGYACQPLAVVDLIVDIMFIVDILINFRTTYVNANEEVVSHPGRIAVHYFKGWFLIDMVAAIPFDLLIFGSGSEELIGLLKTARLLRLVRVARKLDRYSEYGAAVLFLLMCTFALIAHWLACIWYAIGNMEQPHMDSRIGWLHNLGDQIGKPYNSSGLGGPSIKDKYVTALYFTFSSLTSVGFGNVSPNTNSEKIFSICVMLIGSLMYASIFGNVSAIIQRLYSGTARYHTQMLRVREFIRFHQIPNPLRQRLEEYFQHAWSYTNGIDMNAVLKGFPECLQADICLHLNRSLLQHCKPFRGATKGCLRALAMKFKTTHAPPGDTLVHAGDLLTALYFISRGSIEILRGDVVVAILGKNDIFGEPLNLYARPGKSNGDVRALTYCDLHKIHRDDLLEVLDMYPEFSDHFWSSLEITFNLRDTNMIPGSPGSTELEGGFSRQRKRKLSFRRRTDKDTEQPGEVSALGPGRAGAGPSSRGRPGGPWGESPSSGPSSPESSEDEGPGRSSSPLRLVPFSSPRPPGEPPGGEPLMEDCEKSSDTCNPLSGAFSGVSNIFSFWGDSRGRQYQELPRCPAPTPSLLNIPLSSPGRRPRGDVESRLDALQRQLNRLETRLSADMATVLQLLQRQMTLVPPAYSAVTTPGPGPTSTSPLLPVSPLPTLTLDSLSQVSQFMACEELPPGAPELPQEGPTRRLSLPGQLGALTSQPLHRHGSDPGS
In a further data set the target is hERG (KCNH2) (Homo sapiens, UniProt Q12809). Described as §1. Particulars: human.
Sequence of hERG (KCNH2) (Q12809 whole entry): as above
[2] abbreviates: CHO cells that express human ERG.

The compound `COc1ccc(C2CCN(CC[C@H]3CCOc4ccccc43)CC2)cc1OC` had a pIC50 in data set [1] (cho) of 6.7.
In the case of `CC[C@H]1OC(=O)[C@H](C)[C@@H](O[C@H]2C[C@@](C)(OC)[C@@H](O)[C@H](C)O2)[C@H](C)[C@@H](O[C@@H]2O[C@H](C)C[C@H](N(C)C)[C@H]2O)[C@](C)(OC)C[C@@H](C)C(=O)[C@H](C)[C@@H](O)[C@]1(C)O` [CLARITHROMYCIN], in data set [1] (cho), the pIC50 is reported as 4.23.
Consider `Oc1ccc(CCN2CCC(Nc3nc4ccccc4n3Cc3ccc(F)cc3)CC2)cc1` [DESMETHEYLASTEMIZOLE], for which the IC50 in data set [1] is 0.001 µM.
`COc1c(N2CCNC(C)C2)c(F)cc2c(=O)c(C(=O)O)cn(C3CC3)c12` (configuration not stated) [GATIFLOXACIN] gave an IC50 in data set [1] of 129 µM.
The same measure, in the same setting: the same measure for `O=C(OC1CC2CC3CC(C1)N2CC3O)c1c[nH]c2ccccc12` (configuration not stated) [MDL-74156]: 5.89 µM.
`CN(c1nccc(=O)[nH]1)C1CCN(c2nc3ccccc3n2Cc2ccc(F)cc2)CC1` [MIZOLASTINE] gave a negative-log IC50 (pIC50) in data set [1] (cho) of 6.36.
On the same count and under the same terms, the same measure for `CN1CCC[C@H]1c1cccnc1` [NICOTINE]: 3.61.
With `CCOC(=O)C1=C(C)NC(C)=C(C(=O)OC)C1c1cccc([N+](=O)[O-])c1` (configuration not stated) [NITRENDIPINE], on hERG (KCNH2) (setting [2]), the half-inhibitory concentration (IC50) is 10 µM.
With `Cc1cc2c(s1)Nc1ccccc1N=C2N1CCN(C)CC1` [OLANZAPINE], in data set [1] (cho), the negative-log IC50 (pIC50) was 6.74.
For `C[C@@H]1CN(c2c(F)c(N)c3c(=O)c(C(=O)O)cn(C4CC4)c3c2F)C[C@H](C)N1` [SPARFLOXACIN], the pIC50 in data set [1] (setting [2]) was found to be 4.74.
In turn, `COc1ccc(C2CCN(CC[C@H]3CCOc4ccccc43)CC2)cc1OC` [TERIKALANT] had an IC50 at hERG (KCNH2) (cho) of 0.251 µM.
Compound `COc1ccc(C(=O)N2CCN(c3ccc4c(c3)CCC(=O)N4)CC2)cc1OC` [VESNARINONE] showed a negative logarithm of the IC50 (pIC50) in data set [1] (setting [2]) of 5.96.
